Experimental data as given in patent publication US8293746B2, “Pyrimidinyl aryl urea derivatives being FGF inhibitors” (Novartis AG, priority 2005, dated 2012).

melting point: 143 to 144 °C
Structure (SMILES): CCN1CCN(c2ccc(Nc3cc(N(C)C(=O)Nc4cc(OC)c(Cl)c(C(F)(F)F)c4Cl)ncn3)cc2)CC1 [Example 25, 3-(2,4-Dichloro-5-methoxy-3-trifluoromethyl-phenyl)-1-{6-[4-(4-ethyl-piperazin-1-yl)-phenylamino]-pyrimidin-4-yl}-1-methyl-urea]
